{"source": "patent US20050043315A1", "about": "“Aminopyrimidine compounds, processes for their preparation and pharmaceutical compositions containing them” (priority 2002, published 2005)", "data": [{"units": {"melting point": "°C"}, "values": [{"smiles": "CC(C)n1nc(-c2c(Oc3ccccc3)nc(N)nc2-c2ccccc2)ccc1=O", "note": "[Example 98, 6-(2-Amino-4-phenoxy-6-phenyl-5-pyrimidinyl)-2-isopropyl-3(2H)-pyridazinone]", "melting point": "218 to 221"}, {"smiles": "CC(C)n1nc(-c2c(OCC(N)=O)nc(N)nc2-c2ccccc2)ccc1=O", "note": "[Example 99, 2-{[2-amino-5-(1-isopropyl-6-oxo-1,6-dihydro-3-pyridazinyl)-6-phenyl-4-pyrimidinyl]oxy}acetamide]", "melting point": "257 to 261"}, {"smiles": "CC(C)n1nc(-c2c(OCC(=O)O)nc(N)nc2-c2ccccc2)ccc1=O", "note": "[Example 100, {[2-amino-5-(1-isopropyl-6-oxo-1,6-dihydro-3-pyridazinyl)-6-phenyl-4-pyrimidinyl]oxy}acetic acid]", "melting point": "215 to 217"}, {"smiles": "CNC(=O)COc1nc(N)nc(-c2ccccc2)c1-c1ccc(=O)n(C(C)C)n1", "note": "[Example 101, 2-{[2-amino-5-(1-isopropyl-6-oxo-1,6-dihydro-3-pyridazinyl)-6-phenyl-4-pyrimidinyl]oxy}-N-methylacetamide]", "melting point": "204 to 205.5"}, {"smiles": "CC(C)n1nc(-c2c(OCC(=O)N(C)C)nc(N)nc2-c2ccccc2)ccc1=O", "note": "[Example 102, 2-{[2-Amino-5-(1-isopropyl-6-oxo-1,6-dihydro-3-pyridazinyl)-6-phenyl-4-pyrimidinyl]oxy}-N,N-dimethylacetamide]", "melting point": "133 to 135.5"}, {"smiles": "CC(C)n1nc(-c2c(OCC(=O)NC3CC3)nc(N)nc2-c2ccccc2)ccc1=O", "note": "[Example 103, 2-{[2-Amino-5-(1-isopropyl-6-oxo-1,6-dihydro-3-pyridazinyl)-6-phenyl-4-pyrimidinyl]oxy}-N-cyclopropylacetamide]", "melting point": "87 to 92"}, {"smiles": "CC(C)n1nc(-c2c(OCCN)nc(N)nc2-c2ccccc2)ccc1=O", "note": "[Example 104, 6-[2-amino-4-(2-aminoethoxy)-6-phenyl-5-pyrimidinyl]-2-isopropyl-3(2H)-pyridazinone]", "melting point": "213 to 216"}, {"smiles": "CC(C)n1nc(-c2c(N)nc(N)nc2-c2ccccc2)ccc1=O", "note": "[Example 105, 6-(2,4-diamino-6-phenyl-5-pyrimidinyl)-2-isopropyl-3(2H)-pyridazinone]", "melting point": "258 to 260"}, {"smiles": "CNc1nc(N)nc(-c2ccccc2)c1-c1ccc(=O)n(C(C)C)n1", "note": "[Example 106, 6-[2-Amino-4-(methylamino)-6-phenyl-5-pyrimidinyl]-2-isopropyl-3(2H)-pyridazinone]", "melting point": "268 to 270"}, {"smiles": "CC(C)n1nc(-c2c(-c3ccccc3)nc(N)nc2N(C)C)ccc1=O", "note": "[Example 107, 6-[2-Amino-4-(dimethylamino)-6-phenyl-5-pyrimidinyl]-2-isopropyl-3(2H)-pyridazinone]", "melting point": "293 to 296"}, {"smiles": "CCNc1nc(N)nc(-c2ccccc2)c1-c1ccc(=O)n(C(C)C)n1", "note": "[Example 108, 6-[2-Amino-4-(ethylamino)-6-phenyl-5-pyrimidinyl]-2-isopropyl-3(2H)-pyridazinone]", "melting point": "208 to 209"}, {"smiles": "CCCNc1nc(N)nc(-c2ccccc2)c1-c1ccc(=O)n(C(C)C)n1", "note": "[Example 109, 6-[2-Amino-4-phenyl-6-(propylamino)-5-pyrimidinyl]-2-isopropyl-3(2H)-pyridazinone]", "melting point": "209 to 212"}, {"smiles": "CC(C)Nc1nc(N)nc(-c2ccccc2)c1-c1ccc(=O)n(C(C)C)n1", "note": "[Example 110, 6-[2-Amino-4-(isopropylamino)-6-phenyl-5-pyrimidinyl]-2-isopropyl-3(2H)-pyridazinone]", "melting point": "234 to 236"}, {"smiles": "C=CCNc1nc(N)nc(-c2ccccc2)c1-c1ccc(=O)n(C(C)C)n1", "note": "[Example 111, 6-[4-(Allylamino)-2-amino-6-phenyl-5-pyrimidinyl]-2-isopropyl-3(2H)-pyridazinone]", "melting point": "191.5 to 192.5"}, {"smiles": "CC(C)n1nc(-c2c(NC3CC3)nc(N)nc2-c2ccccc2)ccc1=O", "note": "[Example 112, 6-[2-Amino-4-(cyclopropylamino)-6-phenyl-5-pyrimidinyl]-2-isopropyl-3(2H)-pyridazinone]", "melting point": "237 to 239"}, {"smiles": "CC(C)n1nc(-c2c(NC(C)(C)C)nc(N)nc2-c2ccccc2)ccc1=O", "note": "[Example 113, 6-[2-Amino-4-(tert-butylamino)-6-phenyl-5-pyrimidinyl]-2-isopropyl-3(2H)-pyridazinone]", "melting point": "202 to 204"}, {"smiles": "CC(C)n1nc(-c2c(NCCO)nc(N)nc2-c2ccccc2)ccc1=O", "note": "[Example 114, 6-{2-amino-4-[(2-hydroxyethyl)amino]-6-phenyl-5-pyrimidinyl}-2-isopropyl-3(2H)-pyridazinone]", "melting point": "221.5 to 223.5"}, {"smiles": "COCCNc1nc(N)nc(-c2ccccc2)c1-c1ccc(=O)n(C(C)C)n1", "note": "[Example 115, 6-{2-amino-4-[(2-methoxyethyl)amino]-6-phenyl-5-pyrimidinyl}-2-isopropyl-3(2H)-pyridazinone]", "melting point": "168 to 170"}, {"smiles": "CC(C)n1nc(-c2c(NCCN)nc(N)nc2-c2ccccc2)ccc1=O", "note": "[Example 116, 6-{2-Amino-4-[(2-aminoethyl)amino]-6-phenyl-5-pyrimidinyl}-2-isopropyl-3(2H)-pyridazinone]", "melting point": "194 to 197"}, {"smiles": "CC(C)n1nc(-c2c(NCCN(C)C)nc(N)nc2-c2ccccc2)ccc1=O", "note": "[Example 117, 6-(2-Amino-4-{[2-(dimethylamino)ethyl]amino}-6-phenyl-5-pyrimidinyl)-2-isopropyl-3(2H)-pyridazinone]", "melting point": "164 to 165.5"}, {"smiles": "CC(C)n1nc(-c2c(NCC(N)=O)nc(N)nc2-c2ccccc2)ccc1=O", "note": "[Example 118, 2-{(2-amino-5-(1-isopropyl-6-oxo-1,6-dihydro-3-pyridazinyl)-6-phenyl-4-pyrimidinyl]amino}acetamide]", "melting point": "235 to 237.5"}, {"smiles": "CC(C)n1nc(-c2c(-c3ccccc3)nc(N)nc2N(C)Cc2ccccc2)ccc1=O", "note": "[Example 120, 6-{2-amino-4-[benzyl(methyl)amino]-6-phenyl-5-pyrimidinyl}-2-isopropyl-3(2H)-pyridazinone]", "melting point": "167 to 168"}, {"smiles": "CC(C)n1nc(-c2c(NCc3ccccn3)nc(N)nc2-c2ccccc2)ccc1=O", "note": "[Example 121, 6-{2-Amino-4-phenyl-6-[(2-pyridinylmethyl)amino]-5-pyrimidinyl}-2-isopropyl-3(2H)-pyridazinone]", "melting point": "196 to 198"}, {"smiles": "CC(C)n1nc(-c2c(NCc3cccnc3)nc(N)nc2-c2ccccc2)ccc1=O", "note": "[Example 122, 6-{2-Amino-4-phenyl-6-[(3-pyridinylmethyl)amino]-5-pyrimidinyl}-2-isopropyl-3(2H)-pyridazinone]", "melting point": "215 to 216.5"}, {"smiles": "CC(C)n1nc(-c2c(NCc3ccncc3)nc(N)nc2-c2ccccc2)ccc1=O", "note": "[Example 123, 6-{2-Amino-4-phenyl-6-[(4-pyridinylmethyl)amino]-5-pyrimidinyl}-2-isopropyl-3(2H)-pyridazinone]", "melting point": "221.5 to 222.5"}, {"smiles": "CC(C)n1nc(-c2c(NCc3ccco3)nc(N)nc2-c2ccccc2)ccc1=O", "note": "[Example 124, 6-{2-Amino-4-[(2-furylmethyl)amino]-6-phenyl-5-pyrimidinyl}-2-isopropyl-3(2H)-pyridazinone]", "melting point": "213 to 214"}, {"smiles": "CC(C)n1nc(-c2c(-c3ccccc3)nc(N)nc2N2CCCC2)ccc1=O", "note": "[Example 125, 6-[2-Amino-4-phenyl-6-(1-pyrrolidinyl)-5-pyrimidinyl]-2-isopropyl-3(2H)-pyridazinone]", "melting point": "> 300"}]}]}
